# In patent US20230257396A1, “MACROCYCLES AND THEIR USE” (BLOSSOMHILL THERAPEUTICS, INC., priority 2020, published 2023):
# Experiments:
# Test in all cases: KINOMEscan kinase binding assay (Eurofins/DiscoveRx), % Ctrl
# [1] = target: T1, kinases (Homo sapiens, UniProt P00519, E255K)
# T1 construct: purchased Eurofins/DiscoveRx; host or cells: E. coli BL21-derived host (T7 phage display) for most kinases; HEK-293 for the rest
# Method in brief: (§1)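 Competition binding, 1 h RT: phage-tagged or HEK-293-expressed DNA-tagged kinase + immobilized ligand + compound. Eluate kinase by qPCR. % Ctrl = (test − positive ctrl)/(negative ctrl − positive ctrl) × 100; lower means stronger binding.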
# [2] = target: T2, kinases (Homo sapiens, UniProt P00519, T315I)
# T2 construct: purchased Eurofins/DiscoveRx; host or cells: E. coli BL21-derived host (T7 phage display) for most kinases; HEK-293 for the rest
# Method in brief: as §1
# [3] = target: T3, kinases (Homo sapiens, UniProt P00519, Y253F)
# T3 construct: purchased Eurofins/DiscoveRx; host or cells: E. coli BL21-derived host (T7 phage display) for most kinases; HEK-293 for the rest
# Method in brief: as §1
# [4] = target: T4, kinases (Homo sapiens, UniProt P00533, G719S)
# T4 construct: purchased Eurofins/DiscoveRx; host or cells: E. coli BL21-derived host (T7 phage display) for most kinases; HEK-293 for the rest
# Method in brief: as §1
# [5] = target: T5, kinases (Homo sapiens, UniProt P10721, A829P)
# T5 construct: purchased Eurofins/DiscoveRx; host or cells: E. coli BL21-derived host (T7 phage display) for most kinases; HEK-293 for the rest
# T5 sequence (P10721 26-976 A829P): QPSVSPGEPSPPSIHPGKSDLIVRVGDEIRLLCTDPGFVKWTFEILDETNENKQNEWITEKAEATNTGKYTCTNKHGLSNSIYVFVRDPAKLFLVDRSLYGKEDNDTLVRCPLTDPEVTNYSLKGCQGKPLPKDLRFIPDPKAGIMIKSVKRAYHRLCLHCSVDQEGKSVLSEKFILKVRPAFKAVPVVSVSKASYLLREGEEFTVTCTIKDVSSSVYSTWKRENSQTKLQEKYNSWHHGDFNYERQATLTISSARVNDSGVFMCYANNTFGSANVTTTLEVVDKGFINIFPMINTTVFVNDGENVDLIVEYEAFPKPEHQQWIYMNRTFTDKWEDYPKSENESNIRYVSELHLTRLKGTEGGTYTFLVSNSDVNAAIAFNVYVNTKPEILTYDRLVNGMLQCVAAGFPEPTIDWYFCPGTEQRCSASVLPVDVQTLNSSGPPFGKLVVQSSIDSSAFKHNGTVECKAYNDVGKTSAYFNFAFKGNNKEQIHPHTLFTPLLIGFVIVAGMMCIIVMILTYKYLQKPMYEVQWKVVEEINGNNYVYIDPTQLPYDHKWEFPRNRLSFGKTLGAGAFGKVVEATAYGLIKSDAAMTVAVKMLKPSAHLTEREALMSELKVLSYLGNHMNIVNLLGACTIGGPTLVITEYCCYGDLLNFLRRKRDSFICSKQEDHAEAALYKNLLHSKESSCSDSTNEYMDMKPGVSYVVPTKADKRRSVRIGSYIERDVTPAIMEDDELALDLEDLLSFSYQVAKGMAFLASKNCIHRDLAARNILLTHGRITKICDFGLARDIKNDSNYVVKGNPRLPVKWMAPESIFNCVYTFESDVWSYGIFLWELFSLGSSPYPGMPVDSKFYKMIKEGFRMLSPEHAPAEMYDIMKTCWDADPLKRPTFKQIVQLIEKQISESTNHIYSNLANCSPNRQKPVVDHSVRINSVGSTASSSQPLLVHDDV
# Method in brief: as §1
# [6] = target: T6, kinases (Homo sapiens, UniProt P17948)
# T6 construct: purchased Eurofins/DiscoveRx; host or cells: E. coli BL21-derived host (T7 phage display) for most kinases; HEK-293 for the rest
# T6 sequence (P17948 27-1338): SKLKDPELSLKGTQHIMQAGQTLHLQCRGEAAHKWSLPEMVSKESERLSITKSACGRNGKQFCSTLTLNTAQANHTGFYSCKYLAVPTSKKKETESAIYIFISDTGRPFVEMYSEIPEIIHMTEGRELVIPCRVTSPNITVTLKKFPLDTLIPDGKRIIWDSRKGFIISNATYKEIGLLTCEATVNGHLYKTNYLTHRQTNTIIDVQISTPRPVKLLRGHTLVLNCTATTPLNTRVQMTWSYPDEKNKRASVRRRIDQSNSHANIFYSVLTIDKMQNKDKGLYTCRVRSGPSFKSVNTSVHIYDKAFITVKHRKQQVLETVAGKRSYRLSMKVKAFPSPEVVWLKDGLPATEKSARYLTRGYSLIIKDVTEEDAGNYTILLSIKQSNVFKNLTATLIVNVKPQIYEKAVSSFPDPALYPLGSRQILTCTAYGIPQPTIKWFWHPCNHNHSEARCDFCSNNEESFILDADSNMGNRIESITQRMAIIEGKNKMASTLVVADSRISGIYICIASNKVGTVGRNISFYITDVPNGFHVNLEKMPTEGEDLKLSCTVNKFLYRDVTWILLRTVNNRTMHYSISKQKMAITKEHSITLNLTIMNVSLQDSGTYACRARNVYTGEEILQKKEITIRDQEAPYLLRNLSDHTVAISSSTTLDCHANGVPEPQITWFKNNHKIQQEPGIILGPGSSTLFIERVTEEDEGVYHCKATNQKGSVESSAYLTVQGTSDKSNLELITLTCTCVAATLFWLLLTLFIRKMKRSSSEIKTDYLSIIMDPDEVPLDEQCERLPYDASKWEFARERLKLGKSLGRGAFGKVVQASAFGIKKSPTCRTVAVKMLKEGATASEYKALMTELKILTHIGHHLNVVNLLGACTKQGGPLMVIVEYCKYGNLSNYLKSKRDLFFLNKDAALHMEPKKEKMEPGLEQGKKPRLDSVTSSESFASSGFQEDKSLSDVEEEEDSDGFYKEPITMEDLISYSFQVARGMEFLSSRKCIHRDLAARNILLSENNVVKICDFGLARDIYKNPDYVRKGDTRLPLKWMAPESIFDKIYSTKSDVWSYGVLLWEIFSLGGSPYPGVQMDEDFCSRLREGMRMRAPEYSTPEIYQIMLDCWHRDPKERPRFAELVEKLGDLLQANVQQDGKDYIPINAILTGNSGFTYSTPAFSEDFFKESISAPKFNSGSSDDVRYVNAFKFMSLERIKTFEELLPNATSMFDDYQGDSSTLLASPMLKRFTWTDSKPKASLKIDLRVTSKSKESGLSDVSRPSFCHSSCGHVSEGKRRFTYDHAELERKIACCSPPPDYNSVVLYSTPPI
# Method in brief: as §1
# [7] = target: T7, kinases (Homo sapiens, UniProt P36888, N841I)
# T7 construct: purchased Eurofins/DiscoveRx; host or cells: E. coli BL21-derived host (T7 phage display) for most kinases; HEK-293 for the rest
# T7 sequence (P36888 27-993 N841I): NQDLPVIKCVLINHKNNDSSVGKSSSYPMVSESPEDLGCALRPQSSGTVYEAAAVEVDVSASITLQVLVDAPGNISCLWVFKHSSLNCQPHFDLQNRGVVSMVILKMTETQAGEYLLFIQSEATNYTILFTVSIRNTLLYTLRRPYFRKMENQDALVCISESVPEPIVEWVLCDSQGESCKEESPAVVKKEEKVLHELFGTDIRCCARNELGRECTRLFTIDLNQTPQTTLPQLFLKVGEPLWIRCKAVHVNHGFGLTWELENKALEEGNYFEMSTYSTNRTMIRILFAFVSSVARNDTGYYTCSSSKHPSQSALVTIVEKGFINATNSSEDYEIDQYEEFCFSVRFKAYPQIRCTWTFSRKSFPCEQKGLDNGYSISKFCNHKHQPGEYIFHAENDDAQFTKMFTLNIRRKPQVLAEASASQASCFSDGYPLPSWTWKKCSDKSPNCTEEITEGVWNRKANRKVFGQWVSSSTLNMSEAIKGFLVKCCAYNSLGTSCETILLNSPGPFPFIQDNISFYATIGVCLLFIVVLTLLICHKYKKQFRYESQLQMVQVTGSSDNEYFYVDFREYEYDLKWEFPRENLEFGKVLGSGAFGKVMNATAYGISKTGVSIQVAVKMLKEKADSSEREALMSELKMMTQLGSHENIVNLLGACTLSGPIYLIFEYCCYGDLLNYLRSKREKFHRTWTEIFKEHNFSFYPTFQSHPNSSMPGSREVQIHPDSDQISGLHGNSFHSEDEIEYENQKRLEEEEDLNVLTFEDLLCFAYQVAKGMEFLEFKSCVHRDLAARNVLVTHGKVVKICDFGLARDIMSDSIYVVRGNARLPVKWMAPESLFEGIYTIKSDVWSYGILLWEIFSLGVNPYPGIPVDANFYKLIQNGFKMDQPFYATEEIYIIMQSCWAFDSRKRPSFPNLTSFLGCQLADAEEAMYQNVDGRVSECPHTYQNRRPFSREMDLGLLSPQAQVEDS
# Method in brief: as §1
# [8] = 1 μM; ABL1(E255K)-phosphorylated
# [9] = 1 μM; ABL1(T315I)-nonphosphorylated
# [10] = 1 μM; ABL1(T315I)-phosphorylated
# [11] = 1 μM; ABL1(Y253F)-phosphorylated
# [12] = 1 μM; target ABL1(E255K)-phosphorylated
# [13] = 1 μM; target ABL1(T315I)-nonphosphorylated
# [14] = 1 μM; target ABL1(T315I)-phosphorylated
# [15] = 1 μM; target ABL1(Y253F)-phosphorylated
SMILES,"% Ctrl, ABL1(E255K)-phosphorylated [1, 8] [% Ctrl]","% Ctrl, ABL1(T315I)-nonphosphorylated [2, 9] [% Ctrl]","% Ctrl, ABL1(T315I)-phosphorylated [2, 10] [% Ctrl]","% Ctrl, ABL1(Y253F)-phosphorylated [3, 11] [% Ctrl]","% Ctrl, EGFR(G719S) ([4]; 1 μM; EGFR(G719S)) [% Ctrl]","% Ctrl, KIT(A829P) ([5]; 1 μM; KIT(A829P)) [% Ctrl]","% Ctrl, FLT1 ([6]; 1 μM; FLT1) [% Ctrl]","% Ctrl, FLT3(N841I) ([7]; 1 μM; FLT3(N841I)) [% Ctrl]",further results
"Cc1cc2c([nH]1)/C=C1\C(=O)Nc3ccc(cc31)-c1c(C)n[nH]c1CNCCN(C)C2=O [Ex. 127, [3a(4)Z]-6,9,16-trimethyl-9,10,11,12,13,14-hexahydro-1,17-(ethanediylidene)pyrazolo[4,3-m]dipyrrolo[3,2-f:3′,4′-i][1,4]diazacyclopentadecine-3,8(2H,5H)-dione]",0.1,0,0.65,0,72,60,54,0.35,–
"Cc1cc2c([nH]1)/C=C1\C(=O)Nc3cnc(cc31)-c1cn[nH]c1CNCCN(C)C2=O [Ex. 55, [3a(4)Z]-6,9-dimethyl-9,10,11,12,13,14-hexahydro-17,1-(azenometheno)pyrazolo[4,3-m]dipyrrolo[3,2-f:3′,4′-i][1,4]diazacyclopentadecine-3,8(2,5H)-dione]",–,–,–,–,–,–,–,–,"% Ctrl, ABL1(E255K)-phosphorylated ([1]; target ABL1(E255K)-phosphorylated; 1 μM): 2.6 % Ctrl; % Ctrl, ABL1(T315I)-nonphosphorylated ([2]; target ABL1(T315I)-nonphosphorylated; 1 μM): 1.6 % Ctrl; % Ctrl, ABL1(T315I)-phosphorylated ([2]; target ABL1(T315I)-phosphorylated; 1 μM): 2.6 % Ctrl; % Ctrl, ABL1(Y253F)-phosphorylated ([3]; target ABL1(Y253F)-phosphorylated; 1 μM): 3.1 % Ctrl; % Ctrl, EGFR(G719S) ([4]; target EGFR(G719S); 1 μM): 67 % Ctrl; % Ctrl, KIT(A829P) ([5]; target KIT(A829P); 1 μM): 39 % Ctrl; % Ctrl, FLT1 ([6]; target FLT1; 1 μM): 62 % Ctrl; % Ctrl, FLT3(N841I) ([7]; target FLT3(N841I); 1 μM): 0 % Ctrl"
"Cc1cc2c([nH]1)/C=C1\C(=O)Nc3cc(Cl)c(cc31)SCCOCCN(C)C2=O [Ex. 169, [16a(17)Z]-19-chloro-5-methyl-6,7,9,10-tetrahydro-1H-12,14-(ethanediylidene)dipyrrolo[3,4-g:2′,3′-j][1,4,13]oxathiazacyclopentadecine-4,16(5H,15H)-dione]",–,–,–,–,–,–,–,–,"% Ctrl, ABL1(E255K)-phosphorylated [1, 12]: 0.3 % Ctrl; % Ctrl, ABL1(T315I)-nonphosphorylated [2, 13]: 0.3 % Ctrl; % Ctrl, ABL1(T315I)-phosphorylated [2, 14]: 0.1 % Ctrl; % Ctrl, ABL1(Y253F)-phosphorylated [3, 15]: 0.1 % Ctrl; % Ctrl, EGFR(G719S) ([4]; 1 μM; target EGFR(G719S)): 88 % Ctrl; % Ctrl, KIT(A829P) ([5]; 1 μM; target KIT(A829P)): 22 % Ctrl; % Ctrl, FLT1 ([6]; 1 μM; target FLT1): 12 % Ctrl; % Ctrl, FLT3(N841I) ([7]; 1 μM; target FLT3(N841I)): 0 % Ctrl"
"Cc1cc2c([nH]1)/C=C1\C(=O)Nc3cnc(cc31)-c1cnn(C)c1CN(C)CCN(C)C2=O [Ex. 172, [3a(4)Z]-6,9,12,14-tetramethyl-9,10,11,12,13,14-hexahydro-17,1-(azenometheno)pyrazolo[4,3-m]dipyrrolo[3,2-f:3′,4′-i][1,4]diazacyclopentadecine-3,8(2H,5H)-dione]",–,–,–,–,–,–,–,–,"% Ctrl, ABL1(E255K)-phosphorylated [1, 12]: 0.4 % Ctrl; % Ctrl, ABL1(T315I)-nonphosphorylated [2, 13]: 0 % Ctrl; % Ctrl, ABL1(T315I)-phosphorylated [2, 14]: 1.7 % Ctrl; % Ctrl, ABL1(Y253F)-phosphorylated [3, 15]: 0.2 % Ctrl; % Ctrl, EGFR(G719S) ([4]; 1 μM; target EGFR(G719S)): 82 % Ctrl; % Ctrl, KIT(A829P) ([5]; 1 μM; target KIT(A829P)): 31 % Ctrl; % Ctrl, FLT1 ([6]; 1 μM; target FLT1): 26 % Ctrl; % Ctrl, FLT3(N841I) ([7]; 1 μM; target FLT3(N841I)): 0 % Ctrl"
"Cc1cc2c([nH]1)/C=C1\C(=O)Nc3ccc(cc31)CN(C)C(=O)COCCNC2=O [Ex.111, [17a(18)Z]-2,11-dimethyl-6,7,11,12-tetrahydro-1H-13,15-(ethanediylidene)dipyrrolo[3,2-f:3′,4′-i][1,4,14]oxadiazacyclohexadecine-4,10,17(5H,9H,16H)-trione]",42,90,64,58,77,100,46,14,–
"Cc1cc2c([nH]1)/C=C1\C(=O)Nc3cnc(nc31)N(C)CCCOCCN(C)C2=O [Ex.71, [17a(18)Z]-2,5,12-trimethyl-6,7,9,10,11,12-hexahydro-1H-13,15-(azenometheno)dipyrrolo[3,2-f:3′,4′-i][1,4,11,13]oxatriazacyclohexadecine-4,17(5H,16H)-dione]",85,100,100,91,76,100,98,75,–
"Cc1cc2c([nH]1)/C=C1\C(=O)Nc3ccc(cc31)-c1cnn(C)c1COCCN(C)C2=O [Ex. 124, [3a(4)Z]-6,9,14-trimethyl-10,11,13,14-tetrahydro-2H-1,17-(ethanediylidene)pyrazolo[4,3-m]dipyrrolo[3,2-f:3′,4′-i][1,4]oxazacyclopentadecine-3,8(5H,9H)-dione]",0,0,0.1,0,97,4.3,13,0,–

# Further lines, with some results ahead:
"% Ctrl, ABL1(E255K)-phosphorylated [1, 8] [% Ctrl]","% Ctrl, ABL1(T315I)-nonphosphorylated [2, 9] [% Ctrl]","% Ctrl, ABL1(T315I)-phosphorylated [2, 10] [% Ctrl]","% Ctrl, ABL1(Y253F)-phosphorylated [3, 11] [% Ctrl]","% Ctrl, EGFR(G719S) ([4]; 1 μM; EGFR(G719S)) [% Ctrl]","% Ctrl, KIT(A829P) ([5]; 1 μM; KIT(A829P)) [% Ctrl]","% Ctrl, FLT1 ([6]; 1 μM; FLT1) [% Ctrl]","% Ctrl, FLT3(N841I) ([7]; 1 μM; FLT3(N841I)) [% Ctrl]",SMILES,further results
70,94,78,57,99,54,89,19,"Cc1cc2c([nH]1)/C=C1\C(=O)Nc3cc(Cl)c(cc31)OCCO[C@@H](C(=O)NC1CNC1)CN(C)C2=O [Ex. 133, [7R,16a(17)Z]-N-(azetidin-3-yl)-19-chloro-2,5-dimethyl-4,16-dioxo-4,5,6,7,9,10,15,16-octahydro-1H-12,14-(ethanediylidene)dipyrrolo[3,2-i:3′,4′-l][1,4,7]dioxazacyclopentadecine-7-carboxamide]",–
89,92,91,98,97,100,99,68,"Cc1cc2c([nH]1)/C=C1\C(=O)Nc3ccc(cc31)OCCOCCNC2=O [Ex. 129, [16a(17)Z]-2-methyl-6,7,9,10-tetrahydro-1H-12,14-(ethanediylidene)dipyrrolo[3,2-i:3′,4′-l][1,4,7]dioxazacyclopentadecine-4,16(5H,15H)-dione]",–
36,77,37,16,92,64,97,14,"Cc1cc2c([nH]1)/C=C1\C(=O)Nc3cc(Cl)c(cc31)OCCO[C@@H](C(=O)N[C@@H]1CCNC1)CN(C)C2=O [Ex. 136, [7R,16a(17)Z]-19-chloro-2,5-dimethyl-4,16-dioxo-N-[(3R)-pyrrolidin-3-yl]-4,5,6,7,9,10,15,16-octahydro-1H-12,14-(ethanediylidene)dipyrrolo[3,2-i:3′,4′-l][1,4,7]dioxazacyclopentadecine-7-carboxamide]",–
